Reference: US20100087457A1, “DOSAGES AND METHODS FOR THE TREATMENT OF CANCER” (Myriad Pharmaceuticals, Inc, priority 2007, published 2010)
Where a name gives a salt, the structure may show the parent alone. Read-outs that look alike come from different tables or passages of the source.

How the values were obtained:
[1] = Phase I clinical trial: plasma concentrations after weekly intravenous infusion (pharmacokinetics); format: in vivo, human; conditions: human, plasma, iv; for concentration at 1 h / concentration at 1 h after end of infusion: 1 hr after infusion; for concentration at 24 h after end of infusion / concentration at 24 h: 24 hr after infusion; for concentration at 12 h after end of infusion / concentration at 12 h: 12 hr after infusion; for concentration at 2 h / concentration at 2 h after end of infusion: 2 hr after infusion; for concentration at 4 h / concentration at 4 h after end of infusion: 4 hr after infusion; for Cmax: intravenous administration of a single dose, read-out: estimated Cmax
Experimental: (§1) An open-label, dose-escalating, multiple-dose study to define the safety, tolerability and pharmacokinetics of weekly intravenous administration of (4-Methoxy-phenyl)-methyl-(2-methyl-quinazolin-4-yl)-amine hydrochloride was performed. A dosing schedule (each 4 week cycle) was performed for (4-Methoxy-phenyl)-methyl-(2-methyl-quinazolin-4-yl)-amine hydrochloride weekly for 3 weeks with no infusion on the fourth week of each cycle. Subjects with refractory solid tumors were enrolled in cohorts of 3. During Cycle 1, subjects were hospitalized during each infusion of (4-Methoxy-phenyl)-methyl-(2-methyl-quinazolin-4-yl)-amine hydrochloride and remained for observation and safety evaluation for approximately 24 hours following the end of the infusion. All subjects had continuous telemetry for 2 hours prior to infusion, for 1-2 hour infusion and for 3 hours after the end of the infusion. Any clinically significant electrocardiographic (ECG) wave form abnormality was recorded and prolongation of the monitoring period extended at the discretion of the principal investigator.
Blood samples were collected prior to dosing, at the end of the infusion, and 1, 2, 4, 6, 12, and 24 hours after the infusion. This sampling schedule occurred on Days 1 and 15 with administration of the first and third doses. Samples were collected into tubes containing EDTA and stored on ice until centrifuged. The plasma was frozen at approximately −20° C. in labeled, plastic tubes, or vials, and tightly capped. The samples were shipped to Myriad Pharmaceuticals, Inc. for analysis of (4-Methoxy-phenyl)-methyl-(2-methyl-quinazolin-4-yl)-amine hydrochloride. Pharmacokinetic analysis was conducted using WinNonlin 4.0®.

[2] = Phase I clinical trial: safety and tolerability in subjects with refractory solid tumors; format: in vivo, human
Experimental: as §1
Electrocardiograms were obtained prior to starting the infusion and within 30 minutes of the end of infusion for each infusion of the first cycle. Electrocardiograms on Day 1 were obtained in triplicate 5 minutes apart.
Neurocognitive assessments were made by administration of the Mini-Mental State Examination (MMSE), the Hopkins Verbal Learning and timed Grooved Pegboard tests before administration of the intravenous infusion and approximately 24 hours of the infusion at each weekly administration of the first cycle.
On days 1, 8, and 15 of each cycle, vital signs were obtained prior to the first dose, at 15, 30, and 60 minutes after the initiation of the infusion, and at 0.5, 1, 1.5, 2, and 4 hours after the end of the intravenous infusion. Vital signs at all time points beyond the start of the intravenous infusion included heart rate, blood pressure and respirations. Temperature was measured at the end of the infusion and 4 hours later.
Individual subjects were allowed to continue on repeated weekly×3 administrations every 28 days with no dose increase provided there was no unacceptable toxicity or disease progression.
Tumor response was evaluated by response evaluation criteria in solid tumors (RECIST) criteria. To prevent sever hypersensitivity reactions due to Cremophor® EL, subjects were premedicated with oral dexamethasone (20 mg) administered approximately 12 and 6 hours before the intravenous infusion with (4-Methoxy-phenyl)-methyl-(2-methyl-quinazolin-4-yl)-amine hydrochloride, diphenhydramine (50 mg) or its equivalent administered intravenously 30-60 minutes before (4-Methoxy-phenyl)-methyl-(2-methyl-quinazolin-4-yl)-amine hydrochloride, and cimetidine (300 mg) or ranitidine (50 mg) administered intravenously 30-60 minutes before (4-Methoxy-phenyl)-methyl-(2-methyl-quinazolin-4-yl)-amine hydrochloride.

[3] = 1 mg/m^2, Day 1, 1.0 mg/m^2 i.v., infusion 1 hr, LLOQ 1 ng/mL
[4] = 1 mg/m^2, Day 15, 1.0 mg/m^2 i.v., infusion 1 hr, LLOQ 1 ng/mL
[5] = 1.5 mg/m^2, Day 15, 1.5 mg/m^2 i.v., infusion 1 hr, LLOQ 1 ng/mL
[6] = 2.1 mg/m^2, Day 1, 2.1 mg/m^2 i.v., infusion 1 hr, LLOQ 1 ng/mL
[7] = 2.1 mg/m^2, Day 15, 2.1 mg/m^2 i.v., infusion 1 hr, LLOQ 1 ng/mL
[8] = 2.7 mg/m^2, Day 1, 2.7 mg/m^2 i.v., infusion 1 hr, LLOQ 1 ng/mL
[9] = 3.3 mg/m^2, Day 1, 3.3 mg/m^2 i.v., infusion 2 hr, LLOQ 1 ng/mL
[10] = 3.3 mg/m^2, Day 15, 3.3 mg/m^2 i.v., infusion 2 hr, LLOQ 1 ng/mL
[11] = 3.9 mg/m^2, Day 15, 3.9 mg/m^2 i.v., infusion 2 hr, LLOQ 1 ng/mL
[12] = 4.5 mg/m^2, Day 15, 4.5 mg/m^2 i.v., infusion 2 hr, LLOQ 1 ng/mL

SMILES: COc1ccc(N(C)c2nc(C)nc3ccccc23)cc1 [(4-Methoxy-phenyl)-methyl-(2-methyl-quinazolin-4-yl)-amine hydrochloride]
- concentration at 1 h ([1]; 0.3 mg/m^2, Day 15, 0.3 mg/m^2 i.v., infusion 1 hr, LLOQ 1 ng/mL): 1.43 ng/mL
- concentration at 24 h after end of infusion ([1]; 0.6 mg/m^2, Day 1, 0.6 mg/m^2 i.v., infusion 1 hr, LLOQ 1 ng/mL): 5.89 ng/mL
- concentration at 12 h after end of infusion [1, 3]: 3.62 ng/mL
- concentration at 24 h after end of infusion [1, 3]: 1.98 ng/mL
- concentration at 1 h [1, 4]: 2.24 ng/mL
- concentration at 2 h [1, 4]: 1.23 ng/mL
- concentration at 4 h [1, 4]: 1.26 ng/mL
- concentration at 12 h after end of infusion ([1]; 1.5 mg/m^2, Day 1, 1.5 mg/m^2 i.v., infusion 1 hr, LLOQ 1 ng/mL): 1.95 ng/mL
- concentration at 4 h [1, 5]: 1.01 ng/mL
- concentration at 6 h ([1]; 1.5 mg/m^2, Day 15, 1.5 mg/m^2 i.v., infusion 1 hr, 6 hr after infusion, LLOQ 1 ng/mL): 1.47 ng/mL
- concentration at 12 h [1, 5]: 2.24 ng/mL
- concentration at 24 h [1, 5]: 1.63 ng/mL
- concentration at 1 h after end of infusion [1, 6]: 4.06 ng/mL
- concentration at 2 h after end of infusion [1, 6]: 3.28 ng/mL
- concentration at 4 h after end of infusion [1, 6]: 2.64 ng/mL
- concentration at 6 h after end of infusion ([1]; 2.1 mg/m^2, Day 1, 2.1 mg/m^2 i.v., infusion 1 hr, 6 hr after infusion, LLOQ 1 ng/mL): 1.12 ng/mL
- concentration at 12 h after end of infusion [1, 6]: 1.09 ng/mL
- concentration at 1 h [1, 7]: 4.81 ng/mL
- concentration at 4 h [1, 7]: 2.05 ng/mL
- concentration at 12 h [1, 7]: 1.09 ng/mL
- concentration at 24 h [1, 7]: 2.63 ng/mL
- concentration at 1 h after end of infusion [1, 8]: 6.16 ng/mL
- concentration at 2 h after end of infusion [1, 8]: 4.37 ng/mL
- concentration at 4 h after end of infusion [1, 8]: 3.16 ng/mL
- concentration at 6 h after end of infusion ([1]; 2.7 mg/m^2, Day 1, 2.7 mg/m^2 i.v., infusion 1 hr, 6 hr after infusion, LLOQ 1 ng/mL): 2.09 ng/mL
- concentration at 12 h after end of infusion [1, 8]: 2.35 ng/mL
- concentration at 24 h after end of infusion [1, 8]: 1.36 ng/mL
- concentration at 12 h ([1]; 2.7 mg/m^2, Day 15, 2.7 mg/m^2 i.v., infusion 1 hr, LLOQ 1 ng/mL): 3.95 ng/mL
- concentration at 2 h [1, 9]: 6.03 ng/mL
- concentration at 24 h [1, 9]: 1.73 ng/mL
- concentration at 1 h ([1]; 3.3 mg/m^2, Day 15, 3.3 mg/m^2 i.v., infusion 1 hr, LLOQ 1 ng/mL): 14.7 ng/mL
- concentration at 1 h [1, 10]: 6.84 ng/mL
- concentration at 2 h [1, 10]: 3.8 ng/mL
- concentration at 24 h [1, 10]: 1.48 ng/mL
- concentration at 1 h [1, 11]: 10.6 ng/mL
- concentration at 2 h [1, 11]: 10.4 ng/mL
- concentration at 4 h [1, 11]: 8.24 ng/mL
- concentration at 24 h ([1]; 4.5 mg/m^2, Day 1, 4.5 mg/m^2 i.v., infusion 2 hr, LLOQ 1 ng/mL): 1.17 ng/mL
- concentration at 1 h [1, 12]: 13.6 ng/mL
- concentration at 2 h [1, 12]: 13.1 ng/mL
- Cmax ([1]; Day 1): ~14 ng/mL
- Cmax ([1]; Day 15): ~26 ng/mL
- bradycardia ([2]; Phase 1 Trial): occasional episodes of bradycardia
- dose limiting toxicity ([2]; Phase 1 Trial): vascular in nature, manifested by an acute coronary syndrome
- intratumor bleeding ([2]; Phase 1 Trial): incidences of intratumor bleeding
- systolic blood pressure ([2]; Phase 1 Trial): dose-related increase
- effects on cardiac conduction (PR, QRS or QTc) ([2]; Phase 1 Trial, ECG): no significant effects
- cytotoxity peripherally ([2]; Phase 1 Trial, at the administered doses): no evidence of cytotoxity peripherally
- safety and tolerability ([2]; Phase 1 Trial, weekly intravenous administration): safe and tolerable
- dose ranges found to be safely tolerated ([2]; human patients): less than 3.3 mg/m^2
